In patent US8080529B2, “Macrolides with anti-inflammatory activity” (Glaxo Group Limited, priority 2005, dated 2011):

Test system: PMA induced ear oedema
Assay: Phorbol 12-myristate 13-acetate induced ear oedema in CD1 mice
Type: in vivo
Procedure: Male CD1 mice (Iffa Credo, France) weighing 30-40 g were randomly grouped (n=6 in test group of which the untreated ear served as negative control; 6 in positive control group which also served as their own negative control group). Test compounds, as well as vehicle (Trans-phase Delivery System, containing benzyl alcohol 10%, acetone 40% and isopropanol 50%) (all from Kemika, Croatia), were administered topically to the internal surface of the left ear thirty minutes prior to administration of phorbol 12-myristate 13-acetate (PMA) (Sigma, USA). Test compounds were administered at a dose of 100, 250 or 500 μg/15 μL/ear. Thirty minutes later, 0.01% PMA solution in acetone was applied topically to the inner surface of the left ear of each animal in a volume of 12 μL/ear. During the treatment and challenge (stimulation), animals were anaesthetized with anaesthesia by inhalation. Six hours following challenge, animals were euthanized by intraperitoneal thiopental injection (PLIVA, Croatia). For assessing the auricular oedema, 8 mm discs were cut out of left and right auricular pinna and weighed. The degree of oedema was calculated by subtracting the weight of 8 mm disc of the untreated ear from that of the treated contralateral ear. The inhibition of oedema in the treated animals, presented in the Table 8, is expressed as percentage compared to control mice (0%).

Compound	Oedema (% inhibition) (100 μg/ear topical)	Oedema (% inhibition) (250 μg/ear topical)	Oedema (% inhibition) (500 μg/ear topical)
CC[C@H]1OC(=O)[C@H](C)[C@@H](O[C@H]2C[C@@](C)(OC)[C@@H](O)[C@H](C)O2)[C@H](C)[C@@H](O[C@@H]2O[C@H](C)C[C@H](N(C)C)[C@H]2O)[C@](C)(O)C[C@@H](C)CN(C)[C@H](C)[C@@H](O)[C@]1(C)O [azithromycin, reference compound]	0%	83%	90%
CCC1OC(=O)C(C)C(OC2CC(C)(OC)C(OC(=O)CCN(CC)CC)C(C)O2)C(C)C(OC2OC(C)CC(N(C)C)C2O)C(C)(OC)CC(C)C(=O)NC(C)C(O)C1(C)O (stereo not drawn) [Example 8, 4″-O-(3-Diethylamino-propionyl)-6-O-methyl-9a-aza-9a-homoerythromycin A]	54%	74%	94%
